Measurements reported in ChEMBL document CHEMBL4673390, “Discovery of Aminopyrazole Derivatives as Potent Inhibitors of Wild-Type and Gatekeeper Mutant FGFR2 and 3” (ACS Med Chem Lett, 2021).

Experiments:
[1] = in vitro; settings: mouse, blood
[2] = in vitro; settings: human, Caco-2
[3] = in vitro; settings: human, blood
[4] = in vivo; settings: CD-1, mouse, po, 10 mg/kg
[5] = in vivo; settings: CD-1, mouse, po, 10 mg/kg; remark: listed apart in the source
[6] = in vivo; settings: CD-1, mouse, po, 10 mg/kg; remark: listed apart in the source
[7] = in vivo; settings: CD-1, mouse, iv, 5 mg/kg
[8] = in vivo; settings: CD-1, mouse, iv, 5 mg/kg; remark: listed apart in the source

## C=CC(=O)Nc1ccc(CCc2nc(Nc3cc(C)[nH]n3)cc(N3CCN(C)CC3)n2)cc1
[1]
  half-life at 2 h, 2 µM: 2.62 h
[2]
  Papp A→B at 2 h: 0.3 ×10⁻⁶ cm/s
[3]
  half-life at 2 h, 2 µM: 4.12 h

## C=CC(=O)N1CCC2(CCN(c3nc(Nc4cc(C(C)C)[nH]n4)cc(N4CCN(C)CC4)n3)CC2)C1
[1]
  half-life at 2 h, 2 µM: 2.73 h
[2]
  Papp A→B at 2 h: 0.2 ×10⁻⁶ cm/s
[3]
  half-life at 2 h, 2 µM: 3.03 h

## C=CC(=O)Nc1ccc(/C=C/c2nc(Nc3cc(C(C)C)[nH]n3)cc(N3CCN(C)CC3)n2)cc1
[4]
  bioavailability at 24 h: 21%
[5]
  AUC at 24 h: 400 ng·h/mL
[1]
  half-life at 2 h, 2 µM: 1.9 h
[6]
  Cmax at 24 h: 103 ng/mL
[7]
  clearance at 24 h: 86.3 mL/min/kg
[2]
  Papp A→B at 2 h: 0.1 ×10⁻⁶ cm/s
[3]
  half-life at 2 h, 2 µM: 2.02 h
[8]
  Vd at 24 h: 3.1 L/kg
